Laboratory results reported in patent US20240368133A1, “Compounds for the Treatment of Pain, in Particular, Neuropathic Pain, and/or Other Diseases or Disorders that are Associated with AT2R and/or AT2R Mediated Signaling” (Confo Therapeutics N.V., priority 2021, published 2024).

Key:
[1] = molecular target: human AT2R fused to Cb23 (Homo sapiens, UniProt P50052); test: Radioligand binding assay, displacement of 125I-[Sar1, Ile8]-Angiotensin II, hAT2R Cb23; conditions: displacement of 125I-[Sar1, Ile8]-Angiotensin II, human AT2R fused to Cb23, HEK-293 cell membrane preparations; read-out: Binding affinity on hAT2R_Cb23 IC50
human AT2R fused to Cb23, sequence (P50052 whole entry, looked up, the tested form may be a part): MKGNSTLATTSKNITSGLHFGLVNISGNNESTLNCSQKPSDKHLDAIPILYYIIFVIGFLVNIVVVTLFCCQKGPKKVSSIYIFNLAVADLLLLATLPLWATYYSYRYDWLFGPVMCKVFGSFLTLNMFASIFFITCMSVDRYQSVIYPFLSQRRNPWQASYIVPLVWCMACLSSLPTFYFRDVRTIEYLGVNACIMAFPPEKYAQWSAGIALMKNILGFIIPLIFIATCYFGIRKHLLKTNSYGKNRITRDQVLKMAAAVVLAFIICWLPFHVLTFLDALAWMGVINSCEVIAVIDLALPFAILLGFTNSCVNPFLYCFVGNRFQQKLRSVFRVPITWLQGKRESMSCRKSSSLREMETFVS
Protocol: (§1) All synthesized ligands were evaluated in a radioligand assay by displacing ^125I-[Sar1, Ile8]-Angiotensin II (Perkin Elmer, NEX248050UC) from human AT2R fused to Cb23 or human/rodent/cynomolgus/minipig/dog WT AT2R in HEK-293 cells membrane preparations, using C21 (Vicore Pharma) and Angiotensin II (endogenous ligand) as reference. The affinity was determined using an eight-point dose-response curve, each point performed in duplicates. The compounds were also evaluated in a counterscreen binding assay for displacement of ^125I-[Sar1, Ile8]-Angiotensin II binding to human AT1R in HEK-293 cell membranes. For AT1R, the percent displacement was determined at 1 μM and […] (in duplicates) or using an eight-point dose-response curve, each point performed in duplicates with Candesartan and Losartan used as reference.
(§2) For the AT2R/AT1R binding assays, cell membranes, expressing AT2R_Cb23, AT2R or AT1R, were incubated with 0.05 nM ^125I-[Sarl, Ile8]-Ang II. The ligand competition assay was performed in a total volume of 100 μL assay buffer (50 mM Tris, 5 mM MgCl2, 1 mM EDTA, 0.1% BSA, pH 7.4), at concentrations ranging from […] to 10 μM. For each experiment, each ligand concentration was tested in duplicate. Non-specific binding (NSB) was determined by the inclusion of 10 μM unlabeled [Sarl]-Ang II (Sigma Aldrich). The reaction was initiated by the addition of radioligand, after which the plates were incubated at 25° C. for one hour. The reaction was terminated by rapid filtration using a vacuum harvester, applying six washes with 100 μL of ice-cold wash buffer (50 mM Tris.HCl, pH 7.4). The filter plates GF/C (Perkin Elmer) were pre-soaked in 0.5% PEI. The residual amount of radioactivity was determined via liquid scintillation counting. IC50 values, representing the concentration at which each ligand displaced 50% of ^125I-[Sarl, Ile8]-Ang II, were calculated using GraphPad Prism 7.02 by applying a Non-linear regression equation (variable slope, four parameters) on the data. The obtained values serve as affinity estimates for each ligand and their ability to compete against the radioligand for binding with AT2R or AT1R, respectively.

[2] = molecular target: human AT1R (Homo sapiens (Human), UniProt P30556); test: Counterscreen radioligand binding assay, displacement of 125I-[Sar1, Ile8]-Angiotensin II, hAT1R WT; conditions: for inhibition at 1 µM / inhibition at 10 µM: 125I-[Sar1, Ile8]-Ang II, semi-quantitative score; for inhibition at 1 µM: compound at 1 μM, read-out: % Displaced radioligand at 1 μM; for inhibition at 10 µM: compound at 10 μM, read-out: % Displaced radioligand at 10 μM; for IC50: HEK-293 cell membranes, read-out: Binding affinity On hAT1R IC50
human AT1R, sequence (P30556 whole entry): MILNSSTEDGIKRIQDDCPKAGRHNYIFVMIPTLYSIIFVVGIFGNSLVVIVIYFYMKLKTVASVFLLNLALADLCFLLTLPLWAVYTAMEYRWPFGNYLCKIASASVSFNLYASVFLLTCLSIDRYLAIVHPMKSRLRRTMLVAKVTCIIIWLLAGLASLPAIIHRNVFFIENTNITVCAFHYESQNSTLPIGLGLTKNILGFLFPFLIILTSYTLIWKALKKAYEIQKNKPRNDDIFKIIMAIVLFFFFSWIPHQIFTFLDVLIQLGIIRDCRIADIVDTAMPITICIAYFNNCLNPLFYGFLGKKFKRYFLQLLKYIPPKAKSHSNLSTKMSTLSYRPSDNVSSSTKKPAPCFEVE
Protocol: as §1, §2

SMILES | IC50 [1] | inhibition at 1 µM [2] | inhibition at 10 µM [2] | IC50 [2]
c1ccc2sc(CN3CCN(c4cc(OC5CCCC5)ccc4-c4nn[nH]n4)CC3)nc2c1 [Compound A-57, 2-[[4-[5-(cyclo-pentoxy)-2-(2H-tetrazol-5-yl)-phenyl]piperazin-1-yl]methyl]-1,3-benzothiazole] | 1900 nM | < 30% | < 30% | 34500 nM
CC(C)Cc1cc(F)c(-c2nn[nH]n2)c(N2CCN(Cc3cccnn3)C(C(C)C)C2)c1 (centres unmarked) [Compound A-179, 3-[[4-[3-fluoro-5-isobutyl-2-(2H-tetrazol-5-yl)phenyl]-2-isopropyl-piperazin-1-yl]methyl]pyridazine] | 953 nM | < 30% | < 30% | –
Cc1nc(CN2CCN(c3cc(CC(C)C)ccc3-c3nn[nH]n3)CC2)cs1 [Compound A-87] | 3810 nM | < 30% | < 30% | –
CC(C)Cc1cc(F)c(-c2nn[nH]n2)c(N2CCN(Cc3cc(Cl)c(F)cn3)CC2)c1 [Compound A-210, 1-[(4-chloro-5-fluoro-2-pyridyl)-methyl]-4-[3-fluoro-5-isobutyl-2-(2H-tetrazol-5-yl)phen-yl]piperazine] | 2010 nM | < 30% | < 30% | –
Cc1nc(CN2CCN(c3cc(CC(C)C)ccc3-c3nn[nH]n3)CC2)no1 [Compound A-86, 3-[[4-[5-isobutyl-2-(2H-tetrazol-5-yl)phenyl]piperazin-1-yl]methyl]-5-methyl-1,2,4-oxadiazole] | 24900 nM | < 30% | < 30% | –
CC(C)Cc1cc(N2CCN(Cc3nc4ccccc4s3)CC2)c(-c2nn[nH]n2)cc1N [Compound A-138, 4-[4-(1,3-benzo-thiazol-2-ylmethyl)-piperazin-1-yl]-2-isobutyl-5-(2H-tetrazol-5-yl)aniline] | 4710 nM | < 30% | < 30% | –

Stronger by IC50 [1], values ahead:

IC50 [1] | inhibition at 1 µM [2] | inhibition at 10 µM [2] | SMILES | IC50 [2]
69.6 nM | < 30% | < 30% | CC(C)Cc1cc(F)c(-c2nn[nH]n2)c(N2C[C@@H](C)N(Cc3cccnn3)[C@H](C)C2)c1 [Compound A-185, 3-[[(2R,6R)-4-[3-fluoro-5-isobutyl-2-(2H-tetrazol-5-yl)-phenyl]-2,6-dimeth-yl-piperazin-1-yl]-methyl]pyridazine] | –
16 nM | < 30% | < 30% | CC(C)Cc1cc(C2CC2)c(-c2nn[nH]n2)c(N2CCN(Cc3nc4ccccc4s3)CC2)c1 [Compound A-137, 2-[[4-[3-cycloprop-yl-5-isobutyl-2-(2H-tetrazol-5-yl)-phenyl]piperazin-1-yl]methyl]-1,3-benzothiazole] | –
585 nM | < 30% | < 30% | CC(C)Cc1cnc(-c2nn[nH]n2)c(N2CCN(Cc3cccnn3)[C@@H](C)C2)c1 [Compound A-177, 3-[[(2S)-4-[5-isobutyl-2-(2H-tetrazol-5-yl)-3-pyridyl]-2-methyl-piperazin-1-yl]methyl]pyridazine] | –
519 nM | < 30% | < 30% | CC(C)Cc1cc(F)c(-c2nn[nH]n2)c(N2CCN(Cc3ccc(Cl)cn3)CC2)c1 [Compound A-192, 1-[(5-chloro-2-pyridyl)methyl]-4-[3-fluoro-5-isobutyl-2-(2H-tetrazol-5-yl)phenyl]piperazine] | –
104 nM | < 30% | > 50% | CCc1nc2ccc(N(Cc3cccnc3)C(=O)c3cccs3)cc2c(=O)n1CC1CCN(c2ccccc2-c2nn[nH]n2)CC1 [Compound A-244, N-[2-ethyl-4-oxo-3-[[1-[2-(2H-tetrazol-5-yl)phenyl]-4-piperidyl]methyl]quinazolin-6-yl]-N-(3-pyridylmethyl)thiophene-2-carboxamide] | 6620 nM
